This is an account of results in PMC9318275, “A Novel ALDH1A1 Inhibitor Blocks Platinum-Induced Senescence and Stemness in Ovarian Cancer” (Cancers, 2022).

Usually IC50 stands for the concentration that inhibits the measured activity by half.

The target of one assay is T1, ALDH1A2 (Homo sapiens, UniProt O94788).
T1 sequence (O94788 1-518): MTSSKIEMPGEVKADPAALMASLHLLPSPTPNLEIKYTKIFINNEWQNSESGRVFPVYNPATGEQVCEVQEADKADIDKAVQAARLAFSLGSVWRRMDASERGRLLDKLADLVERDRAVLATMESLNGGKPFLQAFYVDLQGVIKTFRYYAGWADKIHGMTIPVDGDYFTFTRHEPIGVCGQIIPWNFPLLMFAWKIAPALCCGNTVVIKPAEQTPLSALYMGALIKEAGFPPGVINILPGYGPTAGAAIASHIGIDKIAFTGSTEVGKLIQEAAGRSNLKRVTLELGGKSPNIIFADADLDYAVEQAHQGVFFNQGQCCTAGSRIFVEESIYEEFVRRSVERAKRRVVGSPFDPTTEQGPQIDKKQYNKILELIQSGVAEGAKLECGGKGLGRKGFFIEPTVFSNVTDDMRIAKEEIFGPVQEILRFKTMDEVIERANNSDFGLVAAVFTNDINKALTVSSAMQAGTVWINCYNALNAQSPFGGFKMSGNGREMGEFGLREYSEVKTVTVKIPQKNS
The assay can be described thus: biochemical. Also noted: NAD(P)H formation at 340 nm, purified recombinant ALDH1A enzyme, propionaldehyde and NAD+. As to conditions: read-out: ALDH1A2 % activity versus control at 20 uM. The method, then:
(§1) Human ALDH1A1, ALDH1A2, and ALDH1A3 were prepared and purified as previously described. The inhibition of ALDH activity by compounds and the IC50 curves were determined by measuring the formation of NAD(P)H spectrophotometrically at 340 nm (molar extinction coefficient of 6200 M^−1 cm^−1) on a Beckman DU-640 as well as a Spectramax 340 PC spectrophotometer (GMI, Ramsey, NJ, USA) using a purified recombinant enzyme. The reaction components for assays with ALDH1A enzymes consisted of 100–200 nM enzyme, 200 µM NAD+, 100 µM propionaldehyde, and 1% DMSO in 25 mM BES buffer at pH 7.5. All assays were performed at 25 °C and were initiated by the addition of substrate after a 2 min incubation period. The purification of and the reaction conditions for the other ALDH isoenzymes were as described in [27]. […] The data were fit to the four-parameter EC50 equation using SigmaPlot (v14), and the values represent the means/SEM of three independent experiments (n = 3). Figure S1. X-Ray Crystallography of CM38 with ALDH1A1 and characterization of inhibitor activ-ity (A). Structure of Human ALDH1A1 with bound compound CM38. […] (B). Inhibition of ALDH activity by compounds and IC50 curves were determined by measuring the formation of NAD(P)H spectro-photometrically at 340 nm using purified recombinant enzymes. (C). […]

The next assay deals with T2, ALDH1A3 (Homo sapiens, UniProt P47895).
T2 sequence (P47895 1-512): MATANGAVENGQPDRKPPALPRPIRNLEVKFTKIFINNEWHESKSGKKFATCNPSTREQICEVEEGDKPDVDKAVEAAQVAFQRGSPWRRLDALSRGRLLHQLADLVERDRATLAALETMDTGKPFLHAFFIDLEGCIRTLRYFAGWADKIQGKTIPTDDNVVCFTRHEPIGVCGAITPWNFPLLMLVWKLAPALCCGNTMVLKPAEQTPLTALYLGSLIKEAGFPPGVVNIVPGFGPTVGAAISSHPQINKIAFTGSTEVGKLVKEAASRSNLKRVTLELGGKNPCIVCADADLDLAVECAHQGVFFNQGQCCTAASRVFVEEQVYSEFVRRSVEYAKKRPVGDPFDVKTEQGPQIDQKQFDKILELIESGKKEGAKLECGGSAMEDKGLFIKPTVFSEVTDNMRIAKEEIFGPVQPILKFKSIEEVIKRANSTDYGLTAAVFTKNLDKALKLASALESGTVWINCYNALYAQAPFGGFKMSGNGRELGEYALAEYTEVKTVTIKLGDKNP
The assay can be described thus: biochemical. Conditions: read-out: ALDH1A3 % activity versus control at 20 uM. Set-up: NAD(P)H formation at 340 nm, purified recombinant ALDH1A enzyme, propionaldehyde and NAD+. The protocol: as §1

Assay [1] concerns the target T3, ALDH1A1 (Homo sapiens, UniProt P00352).
T3 sequence (P00352 2-501): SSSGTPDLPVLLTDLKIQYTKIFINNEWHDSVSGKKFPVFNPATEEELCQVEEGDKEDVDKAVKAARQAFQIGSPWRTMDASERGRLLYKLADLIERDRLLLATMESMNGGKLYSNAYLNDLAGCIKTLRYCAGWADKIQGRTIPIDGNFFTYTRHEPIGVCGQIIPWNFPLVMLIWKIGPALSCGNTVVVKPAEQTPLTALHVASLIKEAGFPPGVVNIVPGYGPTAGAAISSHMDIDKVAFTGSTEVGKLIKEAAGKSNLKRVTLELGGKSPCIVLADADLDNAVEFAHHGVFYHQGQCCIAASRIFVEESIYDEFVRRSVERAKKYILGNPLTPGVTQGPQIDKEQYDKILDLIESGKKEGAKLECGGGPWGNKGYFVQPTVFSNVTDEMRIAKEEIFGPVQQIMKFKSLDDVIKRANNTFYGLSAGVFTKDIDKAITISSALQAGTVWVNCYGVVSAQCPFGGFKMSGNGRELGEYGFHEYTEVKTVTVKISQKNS
The assay can be described thus: purified recombinant enzyme, NAD(P)H formation at […] nm with propionaldehyde as substrate. It counts as biochemical.

In a further assay the target is T4, ALDH2 (Homo sapiens, UniProt P05091).
T4 sequence (P05091 1-517): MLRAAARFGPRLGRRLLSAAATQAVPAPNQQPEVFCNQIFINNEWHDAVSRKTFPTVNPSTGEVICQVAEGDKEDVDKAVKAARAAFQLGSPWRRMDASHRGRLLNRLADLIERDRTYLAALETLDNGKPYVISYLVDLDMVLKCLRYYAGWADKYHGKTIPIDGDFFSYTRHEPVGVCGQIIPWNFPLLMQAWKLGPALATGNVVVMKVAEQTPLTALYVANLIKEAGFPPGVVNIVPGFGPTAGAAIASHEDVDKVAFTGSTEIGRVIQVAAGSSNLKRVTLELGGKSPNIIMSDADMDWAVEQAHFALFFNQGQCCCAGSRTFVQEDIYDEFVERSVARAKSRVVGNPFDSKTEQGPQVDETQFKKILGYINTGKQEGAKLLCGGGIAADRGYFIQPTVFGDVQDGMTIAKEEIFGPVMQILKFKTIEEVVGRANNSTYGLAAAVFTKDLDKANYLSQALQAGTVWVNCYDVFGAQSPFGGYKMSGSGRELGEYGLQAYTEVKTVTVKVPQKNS
Kind of assay: biochemical. Also noted: NAD(P)H formation at 340 nm, purified recombinant ALDH isoenzymes. Conditions: read-out: ALDH2 % activity versus control at 20 uM. The method, then: as §1

The next assay addresses T5, ALDH1B1 (Homo sapiens, UniProt P30837).
T5 sequence (P30837 1-517): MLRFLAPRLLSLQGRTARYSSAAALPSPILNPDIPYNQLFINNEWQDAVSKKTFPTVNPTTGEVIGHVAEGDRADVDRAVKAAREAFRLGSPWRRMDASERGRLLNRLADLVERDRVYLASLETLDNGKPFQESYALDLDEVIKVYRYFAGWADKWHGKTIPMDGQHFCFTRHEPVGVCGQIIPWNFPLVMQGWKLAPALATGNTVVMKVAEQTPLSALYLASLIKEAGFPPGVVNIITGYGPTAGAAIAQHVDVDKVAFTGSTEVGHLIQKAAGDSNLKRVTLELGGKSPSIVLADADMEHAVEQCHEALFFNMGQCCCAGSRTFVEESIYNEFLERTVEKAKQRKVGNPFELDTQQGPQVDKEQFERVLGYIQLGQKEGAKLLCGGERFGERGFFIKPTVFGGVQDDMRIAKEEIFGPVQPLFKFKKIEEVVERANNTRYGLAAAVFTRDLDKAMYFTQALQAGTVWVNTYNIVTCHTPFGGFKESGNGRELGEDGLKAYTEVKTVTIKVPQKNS
Kind of assay: biochemical. Set-up: NAD(P)H formation at 340 nm, purified recombinant ALDH isoenzymes. Conditions: read-out: ALDH1B1 % activity versus control at 20 uM. The protocol:
as §1

The target of assay [2] is T3, ALDH1A1. Kind of assay: X-ray crystal structure at […] Å (complex with NAD and CM38). It counts as binding.

`Cc1c(C(=O)N2CCCCC2)oc2ccc3c(c12)C(=O)CC1(CCCCCC1)O3` [compound 974]: the remaining activity at 20 µM amounted to 63 ± 4.2% on ALDH1A2, 85 ± 4% at ALDH1A3, 76 ± 20% on ALDH2 and 67 ± 3.9% at ALDH1B1. Besides, the half-inhibitory concentration (IC50) at ALDH1A1 [1] worked out at 470 nM.
Take `NC(=O)c1ccc[n+]([C@@H]2O[C@H](COP(=O)([O-])OP(=O)(O)OC[C@H]3O[C@@H](n4cnc5c(N)ncnc54)[C@H](O)[C@@H]3O)[C@@H](O)[C@H]2O)c1` [NAD]: on ALDH1A1 [2], the “X-ray crystal structure at 1.8 Å (complex with NAD and CM38)” value was “we determined the structure of ALDH1A1 in a complex with both NAD and CM38 by X-ray crystallography”.
